Consider 13 compounds from patent US11041000B2, “Peptide inhibitors of interleukin-23 receptor and their use to treat inflammatory diseases” (priority 2019, dated 2021).

Common to all, as to assay type: in vitro ADME
The nature of data set [1]: Stability in human fecal homogenate. To be noted: 20% fecal homogenate (supernatant), pH 6.8, 20% human fecal homogenate, anaerobic, 37° C., read-out: t½: Human Feces anaerobic (converted). The protocol:
Centrifuged the homogenate at 2800×g for 15 min. The supernatant is taken out and used for incubations. […] The final test compound concentration was 20 μM.

The nature of data set [2]: Stability in simulated intestinal fluid (SIF). To be noted: simulated intestinal fluid with pancreatin, pH 6.8, 37° C., matrix is 100 fold dilution of standard SIF concentration; for half-life at 20 μM: read-out: SIF t½ (converted); for SIF t½: 20 μM.
Description: SIF was prepared by adding 6.8 g of monobasic potassium phosphate and 10.0 g of pancreatin to 1.0 L of water. After dissolution, the pH was adjusted to 6.8 using NaOH. DMSO stocks (2 mM) were first prepared for the test compounds. Aliquots of the DMSO solutions were dosed into 6 individual tubes, each containing 0.5 mL of SIF, which is pre-warmed to 37° C. The final test compound concentration was 20 μM. The vials were kept in a benchtop Thermomixer® for the duration of the experiment. At each timepoint (0, 5, 10, 20, 40, 60, or 360 minutes or 24 hours), 1.0 mL of acetonitrile containing 1% formic acid was added to one vial to terminate the reaction. Samples were stored at 4° C. until the end of the experiment. After the final timepoint is sampled, the tubes were mixed and then centrifuged at 3,000 rpm for 10 minutes. Aliquots of the supernatant were removed, diluted 1:1 into distilled water containing internal standard, and analyzed by LCMS/MS. Percent remaining at each timepoint was calculated based on the peak area response ratio of test to compound to internal standard. Time 0 was set to 100%, and all later timepoints were calculated relative to time 0. Half-lives were calculated by fitting to a first-order exponential decay equation using Graphpad.
A further data set is described as follows: Stability in rat plasma. To be noted: both sexes, SD rat plasma, EDTA, 37° C., read-out: t½: Rat Plasma EDTA (converted).

Each structure is given as a SMILES string. Numbered stars: 1 amine (or outer) side, 2 acyl side, 3 side chain; on linkers, the order of the positions; unused ones are H or OH. Bridge positions count the residues as written; N and C are the ends. Square brackets hold non-standard residues; d marks the D form. Peptide text beside a SMILES is read from it. Trp(7-Me) = Cc1cccc2c(C[C@H](N)C(=O)O)c[nH]c12; Abu(4-yl) = O=C([C@H](CC[*:3])N[*:1])[*:2]; 2Nal = N[C@@H](Cc1ccc2ccccc2c1)C(=O)O; AEF = NCCOc1ccc(C[C@H](N)C(=O)O)cc1; Cit = NC(=O)NCCC[C@H](N)C(=O)O; Pen = CC(C)(S)[C@H](N)C(=O)O; αMeK = C[C@](N)(CCCCN)C(=O)O; βAla = NCCC(=O)O

For the compound `CC(=O)NCCCC[C@@H]1NC(=O)[C@H](Cc2c[nH]c3c(C)cccc23)NC(=O)[C@H]([C@@H](C)O)NC(=O)[C@H](CC(N)=O)NC(=O)[C@@H](NC(C)=O)C(C)(C)SSC(C)(C)[C@@H](C(=O)N[C@@H](Cc2ccc(OCCN)cc2)C(=O)N[C@@H](Cc2ccc3ccccc3c2)C(=O)N[C@@](C)(CCCCN)C(=O)N[C@@H](CCCCNC(C)=O)C(=O)N[C@@H](CC(N)=O)C(=O)N[C@@H](Cc2c[nH]cn2)C(N)=O)NC1=O` [SEQ ID No. 248, Ac-[Pen]-NT-[W(7-Me)]-[Lys(Ac)]-[Pen]-Phe[4-(2-aminoethoxy)]-[2-Nal]-[a-MeLys]-[Lys(Ac)]-N-H-NH2], the half-life at 20 μM in data set [1] is above 22.3 h; in data set [2], 32 h. Consider `CC(=O)NCCCC[C@H](NC(=O)[C@](C)(CC(C)C)NC(=O)[C@H](Cc1ccc2ccccc2c1)NC(=O)[C@H](Cc1ccc(OCCN)cc1)NC(=O)[C@H]1NC(=O)[C@H](CCC(N)=O)NC(=O)[C@H](Cc2c[nH]c3c(C)cccc23)NC(=O)[C@H]([C@@H](C)O)NC(=O)[C@H](CC(N)=O)NC(=O)[C@@H](NC(C)=O)C(C)(C)SSC1(C)C)C(=O)N[C@H](C)C(=O)NCCC(N)=O` [compound 209], for which, in data set [2], the half-life at 20 μM is 15 h. With `CC(=O)NCCCC[C@H](NC(=O)[C@](C)(CC(C)C)NC(=O)[C@H](Cc1ccc2ccccc2c1)NC(=O)[C@H](Cc1ccc(OCCN)cc1)NC(=O)[C@H]1NC(=O)[C@H](CCC(N)=O)NC(=O)[C@H](Cc2c[nH]c3c(C)cccc23)NC(=O)[C@H]([C@@H](C)O)NC(=O)[C@H](CC(N)=O)NC(=O)[C@@H](NC(C)=O)C(C)(C)SSC1(C)C)C(=O)N[C@H](CO)C(=O)NCCC(N)=O` [compound 222], the half-life at 20 μM in data set [2] was 19 h. As for `CC(=O)NCCCC[C@H](NC(=O)[C@](C)(CCCCN)NC(=O)[C@H](Cc1ccc2ccccc2c1)NC(=O)[C@H](Cc1ccc(OCCN)cc1)NC(=O)[C@H]1NC(=O)[C@H](CCC(N)=O)NC(=O)[C@H](Cc2c[nH]c3c(C)cccc23)NC(=O)[C@H]([C@@H](C)O)NC(=O)[C@H](CCCNC(N)=O)NC(=O)[C@@H](NC(C)=O)C(C)(C)SSC1(C)C)C(=O)N[C@@H](CC(N)=O)C(=O)NCCC(N)=O` [compound 238] (Ac-[Pen][Cit]T[Trp(7-Me)]Q[Pen][AEF][2Nal][αMeK]K(Ac)N[βAla]-NH2; disulfide 1-6), in data set [2], the “SIF t½” value is 24 h. Still for that read-out and setting: in the case of `CC(=O)NCCCC[C@@H]1NC(=O)[C@@H](NC(C)=O)C(C)(C)SSC(C)(C)[C@@H](C(=O)N[C@@H](Cc2ccc(OCCN)cc2)C(=O)N[C@@H](Cc2ccc3ccccc3c2)C(=O)N[C@@](C)(CCCCN)C(=O)N[C@@H](CCCCNC(C)=O)C(=O)N[C@@H](CC(N)=O)C(=O)NCCC(N)=O)NC(=O)[C@H](CCC(N)=O)NC(=O)[C@H](Cc2c[nH]c3c(C)cccc23)NC(=O)[C@H]([C@@H](C)O)NC1=O` [compound 239] it was 24 h; in that of `CC(=O)NCCCC[C@@H]1NC(=O)[C@H](Cc2c[nH]c3c(C)cccc23)NC(=O)[C@H]([C@@H](C)O)NC(=O)[C@H](CC(N)=O)NC(=O)[C@@H](NC(C)=O)C(C)(C)SSC(C)(C)[C@@H](C(=O)N[C@@H](Cc2ccc(OCCN)cc2)C(=O)N[C@@H](Cc2ccc3ccccc3c2)C(=O)N[C@@](C)(CCCCN)C(=O)N[C@@H](CCCCNC(C)=O)C(=O)N[C@@H](CC(N)=O)C(=O)NCCC(N)=O)NC1=O` [compound 242], 24 h. Take `CC(=O)NCCCC[C@@H]1NC(=O)[C@H](Cc2c[nH]c3c(C)cccc23)NC(=O)[C@H]([C@@H](C)O)NC(=O)[C@H](CC(N)=O)NC(=O)[C@@H](NC(C)=O)C(C)(C)SSC(C)(C)[C@@H](C(=O)N[C@@H](Cc2ccc(OCCN)cc2)C(=O)N[C@@H](Cc2ccc3ccccc3c2)C(=O)N[C@@](C)(CCCCN)C(=O)N[C@@H](CCCCNC(C)=O)C(=O)N[C@@H](CC(N)=O)C(=O)N[C@@H](CC(C)C)C(N)=O)NC1=O` [compound 244]: in data set [1], the half-life at 20 μM is 15 h. Take `CC(=O)NCCCC[C@@H]1NC(=O)[C@H](Cc2c[nH]c3c(C)cccc23)NC(=O)[C@H]([C@@H](C)O)NC(=O)[C@H](CC(N)=O)NC(=O)[C@@H](NC(C)=O)C(C)(C)SSC(C)(C)[C@@H](C(=O)N[C@@H](Cc2ccc(OCCN)cc2)C(=O)N[C@@H](Cc2ccc3ccccc3c2)C(=O)N[C@@](C)(CCCCN)C(=O)N[C@@H](CCCCNC(C)=O)C(=O)N[C@@H](CC(N)=O)C(=O)N[C@@H](CCCNC(N)=O)C(N)=O)NC1=O` [compound 249]: the half-life at 20 μM was above 17 h in data set [1] and 3 h in data set [2]. For `CC(=O)NCCCC[C@@H]1NC(=O)[C@H](Cc2c[nH]c3c(C)cccc23)NC(=O)[C@H]([C@@H](C)O)NC(=O)[C@H](CC(N)=O)NC(=O)[C@@H](NC(C)=O)C(C)(C)SSC(C)(C)[C@@H](C(=O)N[C@@H](Cc2ccc(OCCN)cc2)C(=O)N[C@@H](Cc2ccc3ccccc3c2)C(=O)N[C@@](C)(CCCCN)C(=O)N[C@@H](CCCCNC(C)=O)C(=O)N[C@@H](CC(N)=O)C(=O)N[C@H](C(N)=O)C(C)C)NC1=O` [compound 250] the same measures were above 19.5 h and 11 h. With `CC(=O)NCCCC[C@@H]1NC(=O)[C@H](Cc2c[nH]c3c(C)cccc23)NC(=O)[C@H]([C@@H](C)O)NC(=O)[C@H](CC(N)=O)NC(=O)[C@@H](NC(C)=O)C(C)(C)SSC(C)(C)[C@@H](C(=O)N[C@@H](Cc2ccc(OCCN)cc2)C(=O)N[C@@H](Cc2ccc3ccccc3c2)C(=O)N[C@@](C)(CCCCN)C(=O)N[C@@H](CCCCNC(C)=O)C(=O)N[C@@H](CC(N)=O)C(=O)N[C@@H](C(N)=O)C(C)C)NC1=O` [compound 251], the half-life at 20 μM in data set [2] is 20 h. As for `CC(=O)NCCCC[C@@H]1NC(=O)[C@H](Cc2c[nH]c3c(C)cccc23)NC(=O)[C@H]([C@@H](C)O)NC(=O)[C@H](CC(N)=O)NC(=O)[C@@H](NC(C)=O)C(C)(C)SSC(C)(C)[C@@H](C(=O)N[C@@H](Cc2ccc(OCCN)cc2)C(=O)N[C@@H](Cc2ccc3ccccc3c2)C(=O)N[C@@](C)(CCCCN)C(=O)N[C@@H](CCCCNC(C)=O)C(=O)N[C@@H](CC(N)=O)C(=O)N2CCC[C@H]2C(N)=O)NC1=O` [compound 253], the half-life at 20 μM in data set [2] was 10 h. As for `CC(=O)NCCCC[C@H](NC(=O)[C@](C)(CCCCN)NC(=O)[C@H](Cc1ccc2ccccc2c1)NC(=O)[C@H](Cc1ccc(OCCN)cc1)NC(=O)[C@H]1NC(=O)[C@H](CCCNC(N)=O)NC(=O)[C@H](Cc2c[nH]c3c(C)cccc23)NC(=O)[C@H]([C@@H](C)O)NC(=O)[C@H](CC(N)=O)NC(=O)[C@@H](NC(C)=O)C(C)(C)SSC1(C)C)C(=O)N[C@@H](CC(N)=O)C(=O)N[C@@H](C(N)=O)[C@H](C)O` [compound 263] (Ac-[Pen]NT[Trp(7-Me)][Cit][Pen][AEF][2Nal][αMeK]K(Ac)N[dT]-NH2; disulfide 1-6), in data set [2], the “SIF t½” value is 24 h.

Take `CC(=O)NCCCC[C@@H]1NC(=O)[C@H](Cc2c[nH]c3c(C)cccc23)NC(=O)[C@H]([C@@H](C)O)NC(=O)[C@H](CCC(N)=O)NC(=O)[C@@H](NC(=O)[C@@H](CCCNC(=N)N)NC(C)=O)CCSC[C@@H](C(=O)N[C@@H](Cc2ccc(OCCN)cc2)C(=O)N[C@@H](Cc2ccc3ccccc3c2)C(=O)N[C@@](C)(CCCCN)C(=O)N[C@@H](CCCCNC(C)=O)C(=O)N[C@@H](CC(N)=O)C(N)=O)NC1=O` [compound 326] (Ac-[dR][Abu(4-yl)]QT[Trp(7-Me)]K(Ac)C[AEF][2Nal][αMeK]K(Ac)N-NH2; thioether 2-7): the results for the half-life at 20 μM (in the data set “Stability in rat plasma”; in data set [2]) were above 24 h and 4 h, respectively.
